Measurements: US20160135455A1, “SAFENED HERBICIDAL COMPOSITIONS COMPRISING PYRIDINE CARBOXYLIC ACIDS” (Dow AgroSciences LLC, priority 2014, published 2016)
Like-named read-outs stand apart in the source and are kept apart here.

How the values were obtained:
Type in all cases: in vivo
[1] = tested on: velvetleaf (ABUTH, Abutilon theophrasti); experiment: Postemergence greenhouse trial, herbicidal efficacy on velvetleaf; details: post-emergence, 528 h, applied alone at 35 g/ha, postemergence
Experimental: (§1) Seeds of the desired test plant species were planted in Sun Gro MetroMix® 306 planting mixture, which typically has a pH of 6.0 to 6.8 and an organic matter content of about 30 percent, in plastic pots with a surface area of 103.2 square centimeters (cm^2). When required to ensure good germination and healthy plants, a fungicide treatment and/or other chemical or physical treatment was applied. The plants were grown for 7-36 days (d) in a greenhouse with an approximate 14-hour (h) photoperiod which was maintained at about 23° C. during the day and 22° C. during the night. Nutrients and water were added on a regular basis and supplemental lighting was provided with overhead metal halide 1000-Watt lamps as necessary. The plants were employed for testing when they reached the second or third true leaf stage.
(§2) Weighed amounts of technical material were dissolved in a volume of 97:3 volume per volume (v/v) acetone/dimethyl sulfoxide (DMSO) to stock solutions. […] The concentrated stock solutions were diluted with an aqueous mixture of 1.5% v/v of Agri-dex crop oil concentrate to provide the appropriate application rates. Compound requirements are based upon a 12 milliliter (mL) application volume at a rate of 187 liters per hectare (L/ha). Stocks solutions of the safeners were prepared following the same procedure. Spray solutions of the safeners and experimental compound mixtures were prepared by adding the stock solutions to the appropriate amount of dilution solution to form a 12 mL spray solution in two-way combinations. Formulated compounds were applied to the plant material with an overhead Mandel track sprayer equipped with 8002E nozzles calibrated to deliver 187 L/ha over an application area of 0.503 square meters (m^2) at a spray height of 18 inches (43 centimeters (cm)) above average plant canopy. Control plants were sprayed in the same manner with the solvent blank. All herbicide application (component a) rates are in g ae/ha and all safener (component b) rates are in g ai/ha.
(§3) The treated plants and control plants were placed in a greenhouse as described above and watered by sub-irrigation to prevent wash-off of the test compounds. After 20-22 d, the condition of the test plants as compared with that of the control plants was determined visually and scored on a scale of 0 to 100 percent where 0 corresponds to no injury and 100 corresponds to complete kill. The condition of the test plants was compared with that of the control plants as determined visually and scored on a scale of 0 to 100 percent, where 0 corresponds to no injury and 100 corresponds to complete kill. Colby's equation was used to determine the herbicidal effects expected from the mixtures.

[2] = tested on: pigweed (AMARE, Amaranthus retroflexus); experiment: Postemergence greenhouse trial, herbicidal efficacy on pigweed; details: post-emergence, 528 h, applied alone at 35 g/ha, postemergence
Experimental: as §1, §2, §3

[3] = tested on: winter rape (BRSNW, Brassica napus); experiment: Postemergence greenhouse trial, herbicidal efficacy on winter rape; details: post-emergence, 528 h, applied alone at 35 g/ha, postemergence
Experimental: as §1, §2, §3

[4] = tested on: lambsquarters (CHEAL, Chenopodium album); experiment: Postemergence greenhouse trial, herbicidal efficacy on lambsquarters; details: post-emergence, 528 h, applied alone at 35 g/ha, postemergence
Experimental: as §1, §2, §3

[5] = tested on: thistle (CIRAR, Cirsium arvense); experiment: Postemergence greenhouse trial, herbicidal efficacy on thistle; details: post-emergence, 528 h, applied alone at 35 g/ha, postemergence
Experimental: as §1, §2, §3

[6] = tested on: poinsettia (EPHHL, Euphorbia heterophylla); experiment: Postemergence greenhouse trial, herbicidal efficacy on poinsettia; details: applied alone at 35 g/ha, postemergence; for pest or weed control at 35 g/ha: Euphorbia heterophylla, post-emergence, 528 h, rated after 20-22 d, read-out: % visual injury, Obs, EPHHL; for Obs, % visual injury, EPHHL: scored 20-22 d
Experimental: as §1, §2, §3

[7] = tested on: wild buckwheat (POLCO, Polygonum convolvulus); experiment: Postemergence greenhouse trial, herbicidal efficacy on wild buckwheat; details: Fallopia convolvulus, post-emergence, 528 h, applied alone at 35 g/ha, postemergence
Experimental: as §1, §2, §3

[8] = tested on: chickweed (STEME, Stellaria media); experiment: Postemergence greenhouse trial, herbicidal efficacy on chickweed; details: post-emergence, 528 h, applied alone at 35 g/ha, postemergence
Experimental: as §1, §2, §3

[9] = tested on: wild pansy (VIOTR, Viola tricolor); experiment: Postemergence greenhouse trial, herbicidal efficacy on wild pansy; details: applied alone at 35 g/ha, postemergence; for pest or weed control at 35 g/ha: Viola tricolor, post-emergence, 528 h, scored 20-22 d, read-out: Obs, % visual injury, VIOTR; for % visual injury, Obs, VIOTR: rated after 20-22 d
Experimental: as §1, §2, §3

[10] = tested on: wheat (TRZAS), Triticum aestivum (spring wheat); experiment: Postemergence greenhouse trial, crop injury (phytotoxicity/safening) on wheat; details: applied alone at 35 g/ha, scored 20-22 d, 0 = no injury, 100 = complete kill
Experimental: as §1, §2, §3
The safener fenchlorazole-ethyl was combined with compound 1, compound 2, compound 3, compound 4, compound 5, and compound 6, and applied to wheat (TRZAS), and the phytotoxicity of the herbicidal compositions was measured. In addition, the efficacy of the herbicidal composition on velvetleaf (ABUTH, Abutilon theophrasti), pigweed (AMARE, Amaranthus retroflexus), winter rape (BRSNW, Brassica napus), lambsquarters (CHEAL, Chenopodium album), thistle (CIRAR, Cirsium arvense), nutsedge (CYPES, Cyperus esculentus), poinsettia (EPHHL, Euphorbia heterophylla), wild buckwheat (POLCO, Polygonum convolvulus), giant foxtail (SETFA, Setaria faberi), sorghum (SORVU, Sorghum bicolor), chickweed (STEME, Stellaria media), and wild pansy (VIOTR, Viola tricolor) was evaluated.
The safener isoxadifen-ethyl was combined with compound 1, compound 2, compound 3, compound 4, compound 5, and compound 6, and applied to wheat (TRZAS), and the phytotoxicity of the herbicidal compositions was measured. […]

[11] = tested on: sorghum (SORVU, Sorghum bicolor); experiment: Postemergence greenhouse trial, herbicidal efficacy on sorghum; details: applied alone at 35 g/ha, scored 20-22 d
Experimental: as §1, §2, §3

[12] = rated after 20-22 d, read-out: % visual injury, Obs, ABUTH
[13] = scored 20-22 d, read-out: Obs, % visual injury, ABUTH
[14] = rated after 20-22 d, read-out: % visual injury, Obs, AMARE
[15] = scored 20-22 d, read-out: Obs, % visual injury, AMARE
[16] = rated after 20-22 d, read-out: % visual injury, Obs, BRSNW
[17] = scored 20-22 d, read-out: Obs, % visual injury, BRSNW
[18] = rated after 20-22 d, read-out: % visual injury, Obs, CHEAL
[19] = scored 20-22 d, read-out: Obs, % visual injury, CHEAL
[20] = rated after 20-22 d, read-out: % visual injury, Obs, CIRAR
[21] = scored 20-22 d, read-out: Obs, % visual injury, CIRAR
[22] = rated after 20-22 d, read-out: % visual injury, Obs, POLCO
[23] = scored 20-22 d, read-out: Obs, % visual injury, POLCO
[24] = rated after 20-22 d, read-out: % visual injury, Obs, STEME
[25] = scored 20-22 d, read-out: Obs, % visual injury, STEME

Row | Structure (SMILES) | pest or weed control at 35 g/ha [1, 12] | pest or weed control at 35 g/ha [1, 13] | pest or weed control at 35 g/ha [2, 14] | pest or weed control at 35 g/ha [2, 15] | plant injury at 35 g/ha [3, 16] | plant injury at 35 g/ha [3, 17] | pest or weed control at 35 g/ha [4, 18] | pest or weed control at 35 g/ha [4, 19] | pest or weed control at 35 g/ha [5, 20] | pest or weed control at 35 g/ha [5, 21] | pest or weed control at 35 g/ha [6] | Obs, % visual injury, EPHHL [6] | pest or weed control at 35 g/ha [7, 22] | pest or weed control at 35 g/ha [7, 23] | pest or weed control at 35 g/ha [8, 24] | pest or weed control at 35 g/ha [8, 25] | pest or weed control at 35 g/ha [9] | % visual injury, Obs, VIOTR [9] | Obs, % visual injury, TRZAS [10] | Obs, % visual injury, SORVU [11]
1 | Nc1c(F)c(-c2ccc3cc[nH]c3c2F)nc(C(=O)O)c1Cl [compound 1] | 85% | 85% | 100% | 100% | 99% | 99% | 100% | 100% | 90% | 90% | 100% | 100% | 99% | 99% | 100% | 100% | 64% | 64% | – | –
2 | COC(=O)c1nc(-c2ccc3ccn(C(C)=O)c3c2F)c(F)c(N)c1Cl [compound 3] | – | 50% | – | 75% | – | 30% | – | 85% | – | 50% | – | 100% | – | 97% | – | – | – | – | 30% | –
3 | Nc1c(F)c(-c2ccc3cc[nH]c3c2F)nc(C(=O)OCc2ccccc2)c1Cl [compound 2] | 80% | – | 100% | 100% | 100% | 100% | 97% | 97% | 70% | 70% | 100% | – | 100% | 100% | 100% | 100% | 40% | 40% | – | 70%
